Reference: patent US6500821B1, “4-amino-1-aryl-1,5-dihydropyrrol-2-ones and process for making” (Arzneimittelwerk Dresden GmbH, priority 1999, dated 2002)
Values belong to the compound of their own block, whether it stands above or below them.

Columns and labels:
maximal electroshock [1] = assay: Anticonvulsive action, maximal electroshock (MES), mouse i.p.; format: in vivo; conditions: ip, read-out: Action, % of the protected animals
Procedure: (§1) Compounds according to the present invention were tested in vivo for their anticonvulsive action as shown in Table 1 in mice by i.p. administration, or in rats administered orally according to the internationally customary standard (Pharmac. Weekblad, Sc.Ed. 14 132 (1992) and Antiepileptic Drugs, Third Ed., Raven Press, New York 1989). [table]

Vogel Conflict Test = assay: Vogel Conflict Test; format: in vivo, rat
From the text: In this model, continuous access to drinking water is withheld from rats for a certain time. After this period, free access is given to drinking water, but is coupled with a mild electrical stimulation. The conflict for the animals is between accepting the electrical stimulation or going without a drink.
The reactions to a conflict situation of this type are similar to the secondary phenomena of anxiety in man. The resulting avoidance reactions can be suppressed by anxiolytic substances. As a measure of the anxiolytic action, the number of tolerated current pulses of the animals treated with the test substance is assessed in comparison to the vehicle-treated control group.

elevated maze test = assay: Elevated maze test; format: in vivo, mouse; conditions: for Activity in % (length of stay in the open arms, control = 100): mouse, intraperitoneal
From the text: In this model, mice are placed in an elevated passage system with open and closed arms as described by Pellow, S., Chopin, P., File S. E., Briley, M.: Validation of open: closed arm entries in an elevated plus-maze as a measure of anxiety in rats. J. of Neuroscience Methods 14: 149-167, 1985; Hogg, S.: A review of the validity and variability of the elevated plus-maze as an animal model of anxiety. Pharmacology Biochemistry and Behavior: 21-30, 1996. Untreated animals repeatedly try the closed passages. The inhibition of anxiety is measured by the length of stay in the open arms as a percentage of the total length of stay.

[2] = Octanol/water partition coefficient; format: physicochemical; conditions: read-out: log P (octanol/water partition coefficient)
s.c. pentetrazole = assay: Anticonvulsive action, s.c. pentetrazole (PTZ), mouse i.p.; format: in vivo; conditions: ip, read-out: Action, % of the protected animals
Procedure: as §1

[3] = system: pentetrazol convulsion model; assay: Pentetrazol convulsion model, rat p.o.; format: in vivo; conditions: po
Procedure: as §1, with “1989).” for “1989). [table]”
(§2) Analogous results were obtained for oral action.

maximal electroshock [4] = assay: Maximal electroshock, rat p.o.; format: in vivo; conditions: po
Procedure: as §1, with “1989).” for “1989). [table]”
as §2

neurotoxicity = assay: Neurotoxicity, rat; format: in vivo
Procedure: as §1, with “1989).” for “1989). [table]”
as §2

Structure (SMILES): O=C1C=C(N2CCOCC2)CN1c1ccc(Cl)cc1 [Compound 4, 1-(4-chlorophenyl)-4-morpholin-4-yl-1,5-dihydropyrrol-2-one]
- responders at 300 mg/kg (maximal electroshock [1]): 0%
- therapeutic index (Vogel Conflict Test; Vogel Conflict Test): > 50
- Changed number of impulses to the control in % (Vogel Conflict Test; rat, 3 mg/kg p.o.): 102%
- Changed number of impulses to the control in % (Vogel Conflict Test; rat, 10 mg/kg p.o.): 174%
- dose from which an anxiolytic action was detected / equally effective dose (Vogel Conflict Test; rat, p.o.): 10 mg/kg
- therapeutic index (elevated maze test; elevated maze test): > 50
- proportionate length of stay in the open arms (in words) (elevated maze test; intraperitoneal administration): significantly increased
- Activity in % (length of stay in the open arms, control = 100) (elevated maze test; 1 mg/kg): 128 (p < 0.05) %
- Activity in % (length of stay in the open arms, control = 100) (elevated maze test; 3 mg/kg): 110%
- Activity in % (length of stay in the open arms, control = 100) (elevated maze test; 10 mg/kg): 158 (p < 0.05) %
- Activity in % (length of stay in the open arms, control = 100) (elevated maze test; 30 mg/kg): 129%
- logP [2]: 1.91
- responders at 30 mg/kg (s.c. pentetrazole; dose 30 mg/kg): 100%

Structure (SMILES): O=C1C=C(N2CCOCC2)CN1c1ccc(Cl)cc1 [1-(4-chlorophenyl)-4-morpholin-4-yl-1,5-dihydropyrrol-2-one]
- ED50 [3]: 11 mg/kg
- ED50 (maximal electroshock [4]): 19 mg/kg
- NT50 neurotoxicity (neurotoxicity): > 500 mg/kg

- melting point: 148 to 153 °C
- logP [2]: 2.45
Structure (SMILES): O=C1C=C(N2CCOCC2)CN1c1ccc(OC(F)(F)F)cc1 [Compound 9, 4-morpholin-4-yl-1-(4-trifluoromethoxyphenyl)-1,5-dihydropyrrol-2-one]
- responders at 100 mg/kg (maximal electroshock [1]; dose 100 mg/kg): 100%
- responders at 10 mg/kg (s.c. pentetrazole; dose 10 mg/kg): 50%

- melting point: 198 to 202 °C
- logP [2]: 0.74
Structure (SMILES): COc1ccc(N2CC(N3CCOCC3)=CC2=O)cc1 [Compound 7, 1-(4-methoxyphenyl)-4-morpholin-4-yl-1,5-dihydropyrrol-2-one]
- responders at 300 mg/kg (maximal electroshock [1]): 0%
- responders at 300 mg/kg (s.c. pentetrazole; dose 300 mg/kg): 80%
